Tests used:
CD11c+ DCs = assay: Flow cytometric analysis of DC surface and maturation markers (CD86, HLA-DR, CD83, CCR7); assay type: cell-based, human; settings: FIG. 3; for CD83 and CCR7 expression (maturation markers) / CD86 expression, geometric mean: single-cultured iDCs; for CD83 and CCR7 expression (maturation markers): 16 hours co-stimulation, TNF-α 20 ng/ml; for CD86 expression, geometric mean: 16 hours, TRAIL 300 ng/ml and/or PGE2 0.1 μM, untreated iDCs: 647
Experimental: Human PBMCs were separated from peripheral blood of a healthy donor and the aforementioned glioblastoma patient using Ficoll-Hypaque density centrifugation. PBMC were resuspended in X-Vivo 15 serum-free medium (obtained from Cambrex; Santa Rosa, Calif.) and allowed to adhere to 24-well culture plate at 37° C. The non-adherent cells were removed after 2 hours. CD4+ and CD8+ cells were isolated from these non-adherent cells with MiniMACS cell separation unit (obtained from Milenyi Biotec, Auburn, Calif.) and microbeads conjugated mouse monoclonal anti-human CD4 and CD8 antibody (obtained from Milenyi Biotec). CD4+ and CD8+ cells were used for mixed lymphocyte reaction (MLR) described later. The adherent cells were subsequently cultured in X-Vivo 15 serum-free medium. 20 ng/ml GM-CSF (obtained from BioSource International) and 10 ng/ml IL-4 (obtained from BioSource International) were added to the cultures on days 0, 2, and 4. After 7-day culture, the floating cells were transferred to fresh plates with fresh X-Vivo 15 medium as immature DCs (iDCs). Several iDCs were cultured with 300 ng/ml TRAIL and/or 0.1 μM PGE2 (obtained from Sigma) and/or 20 ng/ml TNF-α for 16 hours (TRAIL-DCs, PGE2-DCs, TRAIL/PGE2-DCs, TRAIL/TNF-α-DCs, TRAIL/TNF-α/PGE2-DCs).
(§1) Glioma cells were plated to 6-well culture plate at density of 1×10^6 cells/well/2 ml with fresh X-Vivo 15 medium. Several glioma cells were pre-treated with the COX-2 inhibitor NS-398 for 8 hours. The NS-398 treated glioma cells were cultured with TNF-α, TRAIL, and NS-398. The other cells were cultured with TNF-α and TRAIL. After 24 hours culture with these agents, iDCs were put into the wells at the density of 3×10^5 cells/well, and were co-cultured with glioma cells for 16 hours. Several iDCs were cultured with TNF-α/TRAIL or TNF-α/TRAIL/NS-398 without tumor cells. Human glioma cell lines (U-87MG and LN-18) and stable transfectants (LN-18-COX-2 and LN-18-EP) were co-cultured with healthy donor iDCs, and MG-377 were co-cultured with autologous iDCs.
Monoclonal mouse anti-human antibodies of PE-conjugated CD83, CD86, HLA-DR (obtained from Phamingen), FITC-conjugated CD11c (obtained from BioSource International), and unconjugated CCR7 (R&D Systems; Minneapolis, Minn.) were used for cell surface analysis of DCs. PE-conjugated F(ab′)2 goat anti-mouse immunoglobulins (obtained from DAKO Cytomation; Carpinteria, Calif.) was used for secondary antibody. Mouse IgG1 and IgG2a (obtained from Phamingen) were used for isotype control. DCs were stained with anti-CD86, HLA-DR, CD83, and CCR7 antibodies before staining with anti-CD11c antibody, and CD11c+DCs were isolated with MiniMACS cell separation unit and microbeads-conjugated anti-FITC antibody (obtained from Milenyi Biotec).
DCs were stained with anti-CD86, HLA-DR, CD83, CCR7, and CD11c antibody. CD11c+ DCs were isolated with cell separation unit and microbease-conjugated anti-FITC antibody.

CD4+ T cells = assay: Mixed lymphocyte reaction and IFN-γ/IL-10 ELISPOT (Th cell polarization); assay type: cell-based, human
[1] = system: COX-2 protein in human glioma cells (U-87MG, LN-18, MG-377); assay: Western blot of COX-2 protein expression in human glioma cells; assay type: cell-based; settings: glioma cells treated with TRAIL and TNF-α plus COX-2 inhibitor (NS-398 10 μM); FIG. 1A
Experimental: Samples were extracted with buffer containing 1% Triton X-100, 150 mM NaCl, 50 mM Tris (hydroxymethyl aminomethane) (pH 7.5) and 1 mM phenylmethylsulfonyl fluoride (PMSF). The cell debris was removed by centrifugation at 14,000 g for 20 minutes and the supernatant was subjected to SDS polyacrylamide gel electrophoresis (SDS-PAGE) and loaded on a 7.5% polyacrylamide gel (obtained from Bio-Rad; Hercules, Calif.). Electrophoretic transfer to nitrocellulose membranes (obtained from Amersham Biosciences; Piscataway, N.J.) was followed by immunoblotting with a mouse IgG1 anti-COX-2 antibody (obtained from Phamingen) or a mouse IgG1 anti-beta-tublin (obtained from Sigma). This was followed by hybridization with a peroxidase-linked anti-mouse IgG antibody (obtained from Amersham Bioscience). The signal was detected by chemiluminescence using ECL detection system (obtained from Amersham Bioscience) and Hyperfilm ECL (obtained from Amersham Bioscience).
Expression of COX-2 protein in human glioma cells was examined by Western blot (FIG. 1A).

[2] = system: PGE2 in the supernatants of glioma cell cultures; assay: PGE2 ELISA in supernatants of glioma cell cultures; assay type: cell-based, human; settings: for PGE2 in the culture supernatants (ELISA): FIG. 1B
Experimental: Tumor cells, including U-87MG human glioma cell line (obtained from American Type Culture Collection; Rockville, Md.), LN-18 cell line (obtained from Dr. Erwin Van Meier, Emory University; Atlanta, Ga.), and primary cultured human glioma MG-377 (obtained from surgical specimen of a glioblastoma patient at neurosurgical institute, Cedars-Sinai Medical Center; Los Angeles, Calif.), were maintained at 37° C. and 5% CO2 in Dulbecco's Modified Eagles Medium (available from Sigma; St. Louis, Mo.; hereinafter “DMEM”) supplemented with 10% heat-inactivated fetal bovine serum (available from Sigma; hereinafter “[…]”), 2 mM […], 10 mM HEPES (available from Sigma), 100 U/ml penicillin (available from Sigma), 100 μg/ml streptomycin (available from Sigma). 100% di-methyl sulfonyl oxygen (available from Sigma; hereinafter “DMSO”) dissolved NS-398 (selective COX-2 inhibitor; obtained from Cayman Chemical) was used at concentrations of 10 μM. Recombinant human TNF-α (obtained from BioSource International; Camarillo, Calif.) was used at a concentration of 20 ng/ml and TRAIL (obtained from PeproTech Inc.; Rocky Hill, N.J.) was used at a concentration of 300 ng/ml.
as §1, with “iDCs. […]” for “iDCs.”
PGE2 in the culture supernatants was measured by ELISA (FIG. 1B).

isolated CD11c+ DCs = assay: IL-10 and IL-12p70 ELISA in supernatants of DC cultures; assay type: cell-based, human; settings: FIG. 4
Experimental: as §1
PGE2 ELISA kit (obtained from Cyman Chemical; Ann Arbor, Mich.) was used according to the manufacture's protocol for measurement in the supernatants of glioma cell cultures. IL-10 and IL-12 p70 ELISA kits (obtained from Phamingen) were used according to the manufacture's protocols for measurement in the supernatants of cultures of tumor cells or isolated CD11c+ DCs. CD40-CD40L interaction is a main trigger of IL-12 production by DCs (Cella, M. et al., “Ligation of CD40 on dendritic cells triggers production of high levels of interleukin-12 and enhances T cell stimulatory capacity: T-T help via APC activation,” J. Exp. Med., Vol. 184, pp. 747-752 (1996)). Based on this evidence, cells were co-cultured with NIH-CD40L cells (obtained from Dr. Gang Zeng, National Cancer Institute, N11, MD; the ratio of NIH-CD40L:DCs=1:1) for 16 hours, and the supernatants of co-cultures were used as the samples. The lower detection limit of each kit was 7.8 pg/ml. All samples and standards were run in duplicate.
IL-10 and IL-12p70 in the supernatants of cultures were measured by ELISA, and the results were statistically compared with NS-398(−) single-cultured DCs (FIG. 4).

[3] = system: glioma cells (U-87MG, LN-18, MG-377); iDCs; assay type: cell-based; settings: NS-398 treatment; data not shown
[4] = system: COX-2 overexpressing glioma cells; settings: supplementing with recombinant IL-12, in the absence of COX-2 inhibitor; cited from earlier work
[5] = DCs co-cultured with NS-398 treated glioma
[6] = single-cultured DCs, compared with NS-398(−) single-cultured DCs

## TNF-α
CD11c+ DCs
  CD83 and CCR7 expression (maturation markers): induced both CD83 and CCR7 expressions

## CCCCC[C@H](O)/C=C/[C@H]1[C@H](O)CC(=O)[C@@H]1C/C=C\CCCC(=O)O [PGE2, ProstaglandinE2]
CD4+ T cells; soluble PGE2 added into culture supernatant of LN-18-EP
  Th cell polarization by tumor-infiltrating DCs: same effect on Th2 polarization as LN-18-COX-2
CD11c+ DCs
  CD83 and CCR7 expression (maturation markers): did not induce CD83 or CCR7 expression
  CD86 expression, geometric mean: 2779

## CS(=O)(=O)Nc1ccc([N+](=O)[O-])cc1OC1CCCCC1 [NS-398]
[1]
  COX-2 expression (Western blot): did not extinguish the COX-2 expression
[2]; LN-18, each group
  PGE2 in the culture supernatants (ELISA): no significant difference
[2]; LN-18-COX-2 stable transfectant
  PGE2 produced by the COX-2 transfectant: suppressed the PGE2
[2]; U-87MG and MG-377, addition of NS-398 10 μM to TRAIL/TNF-α cultures, p<0.01
  PGE2 in the culture supernatants (ELISA): significantly reduced
CD4+ T cells; DCs co-cultured with COX-2-inhibited glioma cells, FIG. 5A-F
  DC-mediated Th cell polarization: bias toward Th1
CD4+ T cells; LN-18-COX-2 stable transfectant with COX-2 inhibitor
  Th cell polarization by tumor-infiltrating DCs: polarizing the Th cells toward Th1
CD4+ T cells; co-culture of primary glioma (MG-377) with autologous DCs, FIG. 5E
  IL-10 expression (ELISPOT): decrease in IL-10
CD4+ T cells; co-culture of primary glioma (MG-377) with autologous DCs, FIG. 5F
  interferon-gamma expression (ELISPOT): decrease in interferon-gamma
CD4+ T cells; co-cultured DCs and glioma, FIG. 5A, 5B
  IL-10 expression (ELISPOT): decrease in IL-10 expression
CD4+ T cells; co-cultured DCs and glioma, FIG. 5C, 5D
  interferon-gamma expression (ELISPOT): increase in interferon-gamma expression
Isolated CD11c+ DCs; [5]
  IL-10 (ELISA): downregulation of IL-10
  IL-12 (ELISA): augmentation of IL-12
Isolated CD11c+ DCs; [6]
  IL-10 production (ELISA): did not effect to change
  IL-12p70 production (ELISA): did not effect to change
[3]
  death ratio in each glioma: did not cause a change of the death ratio
CD11c+ DCs; DCs co-cultured with glioma cells, with or without NS-398 treatment
  geometric means of the expressing markers (CD86, HLA-DR, CD83, CCR7): no statistical difference

B1: TRAIL: TNF-related apoptosis inducing ligand, obtained from PeproTech, used at 300 ng/ml (protein, UniProt P50591 1-281, looked up)
Tumor necrosis factor ligand …: MAMMEVQGGPSLGQTCVLIVIFTVLLQSLCVAVTYVYFTNELKQMQDKYSKSGIACFLKEDDSYWDPNDEESMNSPCWQVKWQLRQLVRKMILRTSEETISTVQEKQQNISPLVRERGPQRVAAHITGTRGRSNTLSSPNSKNEKALGRKINSWESSRSGHSFLSNLHLRNGELVIHEKGFYYIYSQTYFRFQEEIKENTKNDKQMVQYIYKYTSYPDPILLMKSARNSCWSKDAEYGLYSIYQGGIFELKENDRIFVSVTNEHLIDMDHEASFFGAFLVG
CD11c+ DCs
  CD83 and CCR7 expression (maturation markers): did not induce CD83 or CCR7 expression
  CD86 expression, geometric mean: 1086

B2: recombinant IL-12: recombinant IL-12 supplementing DC-based glioma immunotherapy (Akasaki et al.) (protein, UniProt P43431 23-215; P43432 23-335, looked up)
Interleukin-12 subunit alpha: RVIPVSGPARCLSQSRNLLKTTDDMVKTAREKLKHYSCTAEDIDHEDITRDQTSTLKTCLPLELHKNESCLATRETSSTTRGSCLPPQKTSLMMTLCLGSIYEDLKMYQTEFQAINAALQNHNHQQIILDKGMLVAIDELMQSLNHNGETLRQKPPVGEADPYRVKMKLCILLHAFSTRVVTINRVMGYLSSA
Interleukin-12 subunit beta: MWELEKDVYVVEVDWTPDAPGETVNLTCDTPEEDDITWTSDQRHGVIGSGKTLTITVKEFLDAGQYTCHKGGETLSHSHLLLHKKENGIWSTEILKNFKNKTFLKCEAPNYSGRFTCSWLVQRNMDLKFNIKSSSSSPDSRAVTCGMASLSAEKVTLDQRDYEKYSVSCQEDVTCPTAEETLPIELALEARQQNKYENYSTSFFIRDIIKPDPPKNLQMKPLKNSQVEVSWEYPDSWSTPHSYFSLKFFVRIQRKKEKMKETEEGCNQKGAFLVEKTSTEVQCKGGNVCVQAQDRYYNSSCSKWACVPCRVRS
[4]
  therapeutic effect of DC-based glioma immunotherapy: potent therapeutic effect

From patent publication US20080199484A1, “Use Of Cox-2 Inhibitor to Prevent T-Cell Anergy Induced By Dendritic Cell Therapy” (CEDARS-SINAI MEDICAL CENTER, priority 2003, published 2008)
